According to ChEMBL document CHEMBL1130994, “3-trifluoromethylcarbacephems: synthesis of broad spectrum antibacterial compounds” (1998):
Converted amounts (≈) assume the structure as drawn.

Assays:
Type in all cases: functional
Streptococcus pyogenes = test: Compound was evaluated for inhibitory activity against C203 Streptococcus pyogenes Gp.A
Escherichia coli [1] = test: Compound was evaluated for inhibitory activity against EC14 Escherichia coli sensitive
Providencia rettgeri = test: Compound was evaluated for inhibitory activity against C24 Providencia rettgeri
Morganella morganii = test: Compound was evaluated for inhibitory activity against PR15 Morganella morganii
Haemophilus influenzae [2] = test: Compound was evaluated for inhibitory activity against C.L Haemophilus influenzae ampicillin sensitive
Escherichia coli [3] = test: Compound was evaluated for inhibitory activity against TEM Escherichia coli beta-lactamase
Staphylococcus aureus [4] = test: Compound was evaluated for inhibitory activity against X400S Staphylococcus aureus methicillin resistant and macrolide resistant
Staphylococcus aureus [5] = test: Compound was evaluated for inhibitory activity against X1.1 Staphylococcus aureus penicillin sensitive
Serratia [6] = test: Compound was evaluated for inhibitory activity against X99 Serratia
Klebsiella aerogenes [7] = test: Compound was evaluated for inhibitory activity against EB17 Enterobacter aerogenes
Serratia [8] = test: Compound was evaluated for inhibitory activity against SE3 Serratia
Klebsiella aerogenes [9] = test: Compound was evaluated for inhibitory activity against C32 Enterobacter aerogenes
Enterobacter cloacae [10] = test: Compound was evaluated for inhibitory activity against 265a Enterobacter cloacae beta-lactamase
Streptococcus pneumoniae = test: Compound was evaluated for inhibitory activity against Park S Streptococcus pneumoniae
Providencia stuartii = test: Compound was evaluated for inhibitory activity against PR33 Providencia stuartii
Salmonella [11] = test: Compound was evaluated for inhibitory activity against X514 Salmonella
Staphylococcus aureus [12] = test: Compound was evaluated for inhibitory activity against S13E Staphylococcus aureus methicillin resistant penicillin resistant macrolide sensitive (PBP2a producer)
Klebsiella pneumoniae [13] = test: Compound was evaluated for inhibitory activity against KAE Klebsiella pneumoniae
Enterobacter cloacae [14] = test: Compound was evaluated for inhibitory activity against EB5 Enterobacter cloacae
Enterococcus faecalis [15] = test: Compound was evaluated penicillin susceptible
Acinetobacter = test: Compound was evaluated for inhibitory activity against AC12 Acinetobacter
Klebsiella pneumoniae [16] = test: Compound was evaluated for inhibitory activity against X26 Klebsiella pneumoniae
Haemophilus influenzae [17] = test: Compound was evaluated for inhibitory activity against 76 Haemophilus influenzae beta-lactamase
Citrobacter = test: Compound was evaluated for inhibitory activity against CF17 Citrobacter
Salmonella [18] = test: Compound was evaluated for minimum inhibitory concentration against X514 Salmonella
Enterococcus faecalis [19] = test: Compound was evaluated for inhibitory activity against 2041 Enterococcus faecalis Gp.D streptococcus penicillin susceptible

N[C@@H](C(=O)N[C@@H]1C(=O)N2C(C(=O)O)=C(C(F)(F)F)CC[C@H]12)c1ccc(O)cc1
MIC (Streptococcus pyogenes): 0.06 µM (≈ 0.024 µg/mL) | MIC (Escherichia coli [1]): 0.25 µM (≈ 0.0998 µg/mL) | MIC (Providencia rettgeri): 4 µM (≈ 1.6 µg/mL) | MIC (Morganella morganii): 16 µM (≈ 6.39 µg/mL) | MIC (Haemophilus influenzae [2]): 0.5 µM (≈ 0.2 µg/mL) | MIC (Escherichia coli [3]): 0.5 µM (≈ 0.2 µg/mL) | MIC (Staphylococcus aureus [4]): 64 µM (≈ 25.6 µg/mL) | MIC (Staphylococcus aureus [5]): 0.5 µM (≈ 0.2 µg/mL) | MIC (Serratia [6]): 2 µM (≈ 0.799 µg/mL) | MIC (Klebsiella aerogenes [7]): 0.5 µM (≈ 0.2 µg/mL) | MIC (Serratia [8]): 16 µM (≈ 6.39 µg/mL) | MIC (Klebsiella aerogenes [9]): 0.25 µM (≈ 0.0998 µg/mL) | MIC (Enterobacter cloacae [10]): 1 µM (≈ 0.399 µg/mL) | MIC (Streptococcus pneumoniae): 0.25 µM (≈ 0.0998 µg/mL) | MIC (Providencia stuartii): 1 µM (≈ 0.399 µg/mL) | MIC (Salmonella [11]): 0.06 µM (≈ 0.024 µg/mL) | MIC (Staphylococcus aureus [12]): 32 µM (≈ 12.8 µg/mL) | MIC (Klebsiella pneumoniae [13]): 1 µM (≈ 0.399 µg/mL) | MIC (Enterobacter cloacae [14]): 1 µM (≈ 0.399 µg/mL) | MIC (Enterococcus faecalis [15]): 32 µM (≈ 12.8 µg/mL) | MIC (Acinetobacter): 16 µM (≈ 6.39 µg/mL) | MIC (Klebsiella pneumoniae [16]): 0.06 µM (≈ 0.024 µg/mL) | MIC (Haemophilus influenzae [17]): 0.5 µM (≈ 0.2 µg/mL) | MIC (Citrobacter): 4 µM (≈ 1.6 µg/mL)

N[C@@H](C(=O)N[C@@H]1C(=O)N2C(C(=O)O)=C(C(F)(F)F)CC[C@H]12)c1ccc(F)cc1
MIC (Streptococcus pyogenes): 0.06 µM (≈ 0.0241 µg/mL) | MIC (Salmonella [18]): 0.5 µM (≈ 0.201 µg/mL) | MIC (Escherichia coli [1]): 1 µM (≈ 0.401 µg/mL) | MIC (Providencia rettgeri): 8 µM (≈ 3.21 µg/mL) | MIC (Morganella morganii): 16 µM (≈ 6.42 µg/mL) | MIC (Haemophilus influenzae [2]): 0.5 µM (≈ 0.201 µg/mL) | MIC (Escherichia coli [3]): 1 µM (≈ 0.401 µg/mL) | MIC (Staphylococcus aureus [4]): 64 µM (≈ 25.7 µg/mL) | MIC (Staphylococcus aureus [5]): 1 µM (≈ 0.401 µg/mL) | MIC (Serratia [6]): 16 µM (≈ 6.42 µg/mL) | MIC (Klebsiella aerogenes [7]): 8 µM (≈ 3.21 µg/mL) | MIC (Serratia [8]): 32 µM (≈ 12.8 µg/mL) | MIC (Klebsiella aerogenes [9]): 8 µM (≈ 3.21 µg/mL) | MIC (Enterobacter cloacae [10]): 8 µM (≈ 3.21 µg/mL) | MIC (Streptococcus pneumoniae): 0.25 µM (≈ 0.1 µg/mL) | MIC (Providencia stuartii): 8 µM (≈ 3.21 µg/mL) | MIC (Staphylococcus aureus [12]): 32 µM (≈ 12.8 µg/mL) | MIC (Klebsiella pneumoniae [13]): 8 µM (≈ 3.21 µg/mL) | MIC (Enterobacter cloacae [14]): 8 µM (≈ 3.21 µg/mL) | MIC (Acinetobacter): 64 µM (≈ 25.7 µg/mL) | MIC (Enterococcus faecalis [19]): 32 µM (≈ 12.8 µg/mL) | MIC (Klebsiella pneumoniae [16]): 0.5 µM (≈ 0.201 µg/mL) | MIC (Haemophilus influenzae [17]): 1 µM (≈ 0.401 µg/mL) | MIC (Citrobacter): 8 µM (≈ 3.21 µg/mL)

N[C@@H](C(=O)N[C@@H]1C(=O)N2C(C(=O)O)=C(C(F)(F)F)CC[C@H]12)c1cccc(Br)c1
MIC (Streptococcus pyogenes): 0.13 µM (≈ 0.0601 µg/mL) | MIC (Escherichia coli [1]): 4 µM (≈ 1.85 µg/mL) | MIC (Providencia rettgeri): 16 µM (≈ 7.4 µg/mL) | MIC (Morganella morganii): 16 µM (≈ 7.4 µg/mL) | MIC (Haemophilus influenzae [2]): 0.5 µM (≈ 0.231 µg/mL) | MIC (Escherichia coli [3]): 4 µM (≈ 1.85 µg/mL) | MIC (Staphylococcus aureus [4]): 16 µM (≈ 7.4 µg/mL) | MIC (Staphylococcus aureus [5]): 1 µM (≈ 0.462 µg/mL) | MIC (Serratia [6]): 128 µM (≈ 59.2 µg/mL) | MIC (Klebsiella aerogenes [7]): 32 µM (≈ 14.8 µg/mL) | MIC (Serratia [8]): 128 µM (≈ 59.2 µg/mL) | MIC (Klebsiella aerogenes [9]): 16 µM (≈ 7.4 µg/mL) | MIC (Enterobacter cloacae [10]): 64 µM (≈ 29.6 µg/mL) | MIC (Streptococcus pneumoniae): 0.13 µM (≈ 0.0601 µg/mL) | MIC (Providencia stuartii): 16 µM (≈ 7.4 µg/mL) | MIC (Salmonella [11]): 4 µM (≈ 1.85 µg/mL) | MIC (Staphylococcus aureus [12]): 8 µM (≈ 3.7 µg/mL) | MIC (Klebsiella pneumoniae [13]): 16 µM (≈ 7.4 µg/mL) | MIC (Enterobacter cloacae [14]): 64 µM (≈ 29.6 µg/mL) | MIC (Acinetobacter): 16 µM (≈ 7.4 µg/mL) | MIC (Enterococcus faecalis [19]): 8 µM (≈ 3.7 µg/mL) | MIC (Klebsiella pneumoniae [16]): 0.25 µM (≈ 0.116 µg/mL) | MIC (Haemophilus influenzae [17]): 1 µM (≈ 0.462 µg/mL) | MIC (Citrobacter): 32 µM (≈ 14.8 µg/mL)

N[C@@H](C(=O)N[C@@H]1C(=O)N2C(C(=O)O)=C(Cl)CS[C@H]12)c1ccccc1 [CEFACLOR ANHYDROUS]
MIC (Streptococcus pyogenes): 0.06 µM (≈ 0.0221 µg/mL) | MIC (Escherichia coli [1]): 1 µM (≈ 0.368 µg/mL) | MIC (Providencia rettgeri): 64 µM (≈ 23.5 µg/mL) | MIC (Morganella morganii): 128 µM (≈ 47.1 µg/mL) | MIC (Haemophilus influenzae [2]): 2 µM (≈ 0.736 µg/mL) | MIC (Escherichia coli [3]): 2 µM (≈ 0.736 µg/mL) | MIC (Staphylococcus aureus [4]): 128 µM (≈ 47.1 µg/mL) | MIC (Staphylococcus aureus [5]): 0.5 µM (≈ 0.184 µg/mL) | MIC (Serratia [6]): 64 µM (≈ 23.5 µg/mL) | MIC (Klebsiella aerogenes [7]): 8 µM (≈ 2.94 µg/mL) | MIC (Serratia [8]): 128 µM (≈ 47.1 µg/mL) | MIC (Klebsiella aerogenes [9]): 32 µM (≈ 11.8 µg/mL) | MIC (Enterobacter cloacae [10]): 128 µM (≈ 47.1 µg/mL) | MIC (Streptococcus pneumoniae): 0.5 µM (≈ 0.184 µg/mL) | MIC (Providencia stuartii): 64 µM (≈ 23.5 µg/mL) | MIC (Salmonella [11]): 0.5 µM (≈ 0.184 µg/mL) | MIC (Staphylococcus aureus [12]): 128 µM (≈ 47.1 µg/mL) | MIC (Klebsiella pneumoniae [13]): 128 µM (≈ 47.1 µg/mL) | MIC (Enterobacter cloacae [14]): 32 µM (≈ 11.8 µg/mL) | MIC (Acinetobacter): 128 µM (≈ 47.1 µg/mL) | MIC (Enterococcus faecalis [19]): 32 µM (≈ 11.8 µg/mL) | MIC (Klebsiella pneumoniae [16]): 0.25 µM (≈ 0.092 µg/mL) | MIC (Haemophilus influenzae [17]): 1 µM (≈ 0.368 µg/mL) | MIC (Citrobacter): 128 µM (≈ 47.1 µg/mL)

N[C@@H](C(=O)N[C@@H]1C(=O)N2C(C(=O)O)=C(C(F)(F)F)CC[C@H]12)c1ccc(O)c(Cl)c1
MIC (Streptococcus pyogenes): 0.03 µM (≈ 0.013 µg/mL) | MIC (Escherichia coli [1]): 0.5 µM (≈ 0.217 µg/mL) | MIC (Providencia rettgeri): 4 µM (≈ 1.74 µg/mL) | MIC (Morganella morganii): 4 µM (≈ 1.74 µg/mL) | MIC (Haemophilus influenzae [2]): 0.5 µM (≈ 0.217 µg/mL) | MIC (Escherichia coli [3]): 1 µM (≈ 0.434 µg/mL) | MIC (Staphylococcus aureus [4]): 8 µM (≈ 3.47 µg/mL) | MIC (Staphylococcus aureus [5]): 1 µM (≈ 0.434 µg/mL) | MIC (Serratia [6]): 4 µM (≈ 1.74 µg/mL) | MIC (Klebsiella aerogenes [7]): 1 µM (≈ 0.434 µg/mL) | MIC (Serratia [8]): 16 µM (≈ 6.94 µg/mL) | MIC (Klebsiella aerogenes [9]): 2 µM (≈ 0.868 µg/mL) | MIC (Enterobacter cloacae [10]): 16 µM (≈ 6.94 µg/mL) | MIC (Streptococcus pneumoniae): 0.06 µM (≈ 0.026 µg/mL) | MIC (Providencia stuartii): 4 µM (≈ 1.74 µg/mL) | MIC (Salmonella [11]): 0.125 µM (≈ 0.0542 µg/mL) | MIC (Staphylococcus aureus [12]): 8 µM (≈ 3.47 µg/mL) | MIC (Klebsiella pneumoniae [13]): 4 µM (≈ 1.74 µg/mL) | MIC (Enterobacter cloacae [14]): 8 µM (≈ 3.47 µg/mL) | MIC (Acinetobacter): 32 µM (≈ 13.9 µg/mL) | MIC (Enterococcus faecalis [19]): 4 µM (≈ 1.74 µg/mL) | MIC (Klebsiella pneumoniae [16]): 0.13 µM (≈ 0.0564 µg/mL) | MIC (Haemophilus influenzae [17]): 0.5 µM (≈ 0.217 µg/mL) | MIC (Citrobacter): 4 µM (≈ 1.74 µg/mL)

CCS(=O)(=O)Nc1cccc([C@@H](N)C(=O)N[C@@H]2C(=O)N3C(C(=O)O)=C(C(F)(F)F)CC[C@H]23)c1
MIC (Streptococcus pyogenes): 0.06 µM (≈ 0.0294 µg/mL) | MIC (Escherichia coli [1]): 1 µM (≈ 0.49 µg/mL) | MIC (Providencia rettgeri): 32 µM (≈ 15.7 µg/mL) | MIC (Morganella morganii): 16 µM (≈ 7.85 µg/mL) | MIC (Haemophilus influenzae [2]): 1 µM (≈ 0.49 µg/mL) | MIC (Escherichia coli [3]): 1 µM (≈ 0.49 µg/mL) | MIC (Staphylococcus aureus [4]): 32 µM (≈ 15.7 µg/mL) | MIC (Staphylococcus aureus [5]): 4 µM (≈ 1.96 µg/mL) | MIC (Serratia [6]): 64 µM (≈ 31.4 µg/mL) | MIC (Klebsiella aerogenes [7]): 16 µM (≈ 7.85 µg/mL) | MIC (Serratia [8]): 128 µM (≈ 62.8 µg/mL) | MIC (Klebsiella aerogenes [9]): 16 µM (≈ 7.85 µg/mL) | MIC (Enterobacter cloacae [10]): 32 µM (≈ 15.7 µg/mL) | MIC (Streptococcus pneumoniae): 0.13 µM (≈ 0.0638 µg/mL) | MIC (Providencia stuartii): 16 µM (≈ 7.85 µg/mL) | MIC (Salmonella [11]): 1 µM (≈ 0.49 µg/mL) | MIC (Staphylococcus aureus [12]): 32 µM (≈ 15.7 µg/mL) | MIC (Klebsiella pneumoniae [13]): 32 µM (≈ 15.7 µg/mL) | MIC (Enterobacter cloacae [14]): 32 µM (≈ 15.7 µg/mL) | MIC (Enterococcus faecalis [15]): 32 µM (≈ 15.7 µg/mL) | MIC (Acinetobacter): 64 µM (≈ 31.4 µg/mL) | MIC (Klebsiella pneumoniae [16]): 0.25 µM (≈ 0.123 µg/mL) | MIC (Haemophilus influenzae [17]): 4 µM (≈ 1.96 µg/mL) | MIC (Citrobacter): 32 µM (≈ 15.7 µg/mL)
